These results are taken from patent publication US5622725A, “Wound disinfection and repair” (Alcide Corporation, priority 1996, dated 1997).

Data set [1] relates to lactobacilli, streptococci, coliforms, Klebsiella species, Enterobacter species, Bacteroides species, clostridia and eubacteria. As to the kind of experiment: Broad-spectrum antimicrobial activity. The settings on record: aerobic and anaerobic. The data set is classed as cell-based. The source says: In one embodiment, the present invention is directed to the use of effective amounts of chlorine dioxide as a peritoneal cavity irrigant. The enteric organisms which enter the peritoneal cavity through contamination by gastrointestinal contact, whether by physical trauma or during surgery, are all susceptible to the cidal effects of chlorine dioxide, which is a broad-spectrum antimicrobial. […] However, as mentioned in the Introduction, addition of antibiotics to the irrigating solution has not provided any additional benefit (Hau and Nishikawa, cited above), and it is presumed that the peritoneal irrigation derives from its mechanical effect. The ineffectivenss of local antibiotic solutions has been surprising to researchers, since the antibiotics that have been used were capable of in vitro inhibition of the bacterial species present in the peritoneal cavity. It may be that the lack of effect was attributable to the brevity of contact of the antibiotic with the organisms, since usual flush times approximate five minutes or less in duration, which would be too short for significant cidal action to occur.

Data set [2] has as its system polymorphonuclear leukocytes. As to the kind of experiment: Chemotaxis, cell integrity (lactate dehydrogenase) and morphology of isolated polymorphonuclear leukocytes. It counts as cell-based. The settings on record: in vitro, ClO2 solution 3 to 300 ppm. The source says: To test whether methods of the invention can control the inflammatory response, isolated polymorphonuclear leukocytes, which are among the first cells to be found at a wound or a site of potential infection, are studied with respect to their response to chlorine dioxide solutions and compared with a control containing ibuprofen, a known non-steroid anti-inflammatorycompound. The choice of in vitro assay is chemotaxis.
Isolated polymorphonuclear leukocytes are studied with respect to their response to a ClO2 solution varying in concentration from 3 to 300 ppm and an ibuprofen control. Cellular response and integrity (chemotaxis)is assayed in vitro after incubating with both compounds by measuring lactate dehydrogenase activity and/or release concurrently with observing morphology using scanning electron microscopy and/or transmission electron microscopy.
The results are graphically illustrated in FIGS. 1 to 3. The x-axis in the figures show dilutions of a 0.5 mg/ml ibuprofen solution, and chlorine dioxide solutions prepared by combining lactic acid with sodium chlorite and diluting to yield chlorine dioxide concentrations as follows: […], 1:10 is 60 ppm ClO2, 1:20 is 30 ppm ClO2, 1:50 is 12 ppm ClO2, 1:100 is 6 ppm ClO2, 1:150 is 4 ppm ClO2, and 1:200 is 3 ppm ClO2.
A negative control is denoted by .smallcircle.. […]

Data set [3] in a line: Free radical signal by electron spin resonance (ESR). The settings on record: One hundred-fold dilutions, within one minute after mixing. How it is done: ClO2 (75 ppm) is generated by mixing 0.25% chlorite and 1.4% lactic acid. One hundred-fold dilutions are tested within one minute after mixing using electron paramagnetic spectroscopy (ESR) and a LKB luminometer.
For the ESR assay, the chlorine dioxide solution is frozen in liquid nitrogen to -167° C. and electron spin resonance analyzed using a Varian E3 instrument.

For data set [4], the system named is cows' udders. The data set can be described thus: Infusion into cows' udders, immune response. The data set is classed as in vivo, cow. The settings on record: 350 ppm in buffered saline. The source says:
It is an advantage of the invention that solutions containing fairly significant levels of ClO2 are particularly well tolerated by tissues. […] ClO2 is capable of being reduced to lower oxidation states, such as chlorite and chloride, upon contact with organic materials, but is less reactive than, for example, hypochlorite, and a volume of ClO2 -containing saline is expected to retain significant antimicrobial activity when used to flush out organic debris from an incised area. Appropriate use levels of ClO2 will vary, depending on the amount of organic detritus in the site, but generally concentrations of about 5 to 250 ppm in approximately isotonic solution can be used with good effect.

For data set [5], the system named is mammalian tissue. The data set can be described thus: Tolerance by mammalian tissue (eye irrigant, udder infusion, uterine douche). The note with it: 50 ppm. The data set is classed as in vivo, rabbits, cow, mares. The source says:
The materials in the table which are as effective as the 50 ppm ClO2 solution are ones that would be considered to be too irritating and/or corrosive for use as an irrigant in a peritoneal cavity.

In data set [6] the test system is peritoneal cavity. The note with it: infused into the peritoneal cavity and other body cavities; per Ser. No. 08/133,465 and U.S. Pat. No. 5,252,343; cited from earlier work.

As to `[O][Cl+][O-]` [ClO2, chlorine dioxide], the “demonstrated activity against organisms” value in data set [1] was “demonstrated activity against all relevant organisms, both aerobic and anaerobic”. Moreover, the “effect on chemotaxis / quality and morphology of polymorphonuclear leukocytes” value in data set [2] was “control chemotaxis by affecting the quality and morphology of the associated polymorphonuclear leukocytes”; in data set [2] (listed as ClO2 solution) it was “affected both the quality and morphology of polymorphonuclear leukocytes”. Further, the free radical signal entry in data set [3] was “A strong free radical signal is generated”. Also, in data set [4], the “safety of infusion / immune response” value is “safely infusable into cows' udders without stimulation of any immune response”. The “tolerance by mammalian tissue” value in data set [5] is “well tolerated by mammalian tissue”. The “inflammatory response on infusion” value in data set [6] is “without evoking the inflammatory response”.
